Reference: PubChem BioAssay AID248 (DTP/NCI, 2004)
Where “and” joins values, the source holds several entries; their conditions need not be identical. Equal values may be shown once. Toxic doses and inconclusive results are not listed. No stated cut-off is given here; in the data, active means T/C of 150% or more; inactive means T/C below 125%.

Tested on: L1210 leukemia ip in BDF1 mice, survival T/C
Assay: NCI In Vivo Anticancer Drug Screen. Data for tumor model L1210 Leukemia (intraperitoneal) in B6D2F1 (BDF1) mice
Settings: endpoint: mean survival time, higher = longer survival
How it was run: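 Tumor cells were implanted, animals were treated, and survival was followed. The result divides the treated measurement by the vehicle-control measurement.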

[1] = dose: 25.0 mg/kg/injection, schedule: Q01DX009 (ip), vehicle: saline
[2] = dose: 100.0 mg/kg/injection, schedule: Q01DX009 (ip), vehicle: acetone
[3] = dose: 200.0 mg/kg/injection, schedule: Q01DX001 (ip), vehicle: saline
[4] = dose: 200.0 mg/kg/injection, schedule: Q01DX009 (ip), vehicle: acetone
[5] = dose: 100.0 mg/kg/injection, schedule: Q01DX001 (ip), vehicle: Klucel (hydroxypropylcellulose) (HPC)
[6] = dose: 200.0 mg/kg/injection, schedule: Q01DX001 (ip), vehicle: Klucel (hydroxypropylcellulose) (HPC)
[7] = dose: 100.0 mg/kg/injection, schedule: Q01DX001 (ip), vehicle: saline
[8] = dose: 50.0 mg/kg/injection, schedule: Q01DX009 (ip), vehicle: water
[9] = dose: 100.0 mg/kg/injection, schedule: Q01DX009 (ip), vehicle: water
[10] = dose: 100.0 mg/kg/injection, schedule: Q04DX003 (ip), vehicle: saline
[11] = dose: 200.0 mg/kg/injection, schedule: Q04DX003 (ip), vehicle: saline
[12] = dose: 400.0 mg/kg/injection, schedule: Q04DX003 (ip), vehicle: saline
[13] = dose: 100.0 mg/kg/injection, schedule: Q04DX003 (ip), vehicle: saline with Tween-80
[14] = dose: 200.0 mg/kg/injection, schedule: Q04DX003 (ip), vehicle: saline with Tween-80
[15] = dose: 400.0 mg/kg/injection, schedule: Q04DX003 (ip), vehicle: saline with Tween-80
[16] = dose: 50.0 mg/kg/injection, schedule: Q01DX009 (ip), vehicle: saline
[17] = dose: 100.0 mg/kg/injection, schedule: Q01DX009 (ip), vehicle: saline
[18] = dose: 200.0 mg/kg/injection, schedule: Q01DX009 (ip), vehicle: saline

Measured: T/C

Clc1ccc(C(c2ccc(Cl)cc2)C(Cl)(Cl)Cl)cc1
inactive: dose: 12.0 mg/kg/injection, schedule: Q01DX009 (ip), vehicle: saline 95 % of control | dose: 12.5 mg/kg/injection, schedule: Q01DX009 (ip), vehicle: acetone 97 % of control | dose: 25.0 mg/kg/injection, schedule: Q01DX009 (ip), vehicle: Klucel (hydroxypropylcellulose) (HPC) 90 % of control | dose: 25.0 mg/kg/injection, schedule: Q01DX009 (ip), vehicle: acetone 93 % of control | [1] 92 % of control | dose: 50.0 mg/kg/injection, schedule: Q01DX009 (ip), vehicle: Klucel (hydroxypropylcellulose) (HPC) 92 % of control | dose: 50.0 mg/kg/injection, schedule: Q01DX009 (ip), vehicle: acetone 100 % of control and 86 % of control | dose: 100.0 mg/kg/injection, schedule: Q01DX001 (ip), vehicle: acetone 93 % of control | [2] 94 % of control | dose: 200.0 mg/kg/injection, schedule: Q01DX001 (ip), vehicle: acetone 87 % of control | [3] 90 % of control | [4] 97 % of control | dose: 400.0 mg/kg/injection, schedule: Q01DX001 (ip), vehicle: acetone 92 % of control | dose: 800.0 mg/kg/injection, schedule: Q01DX001 (ip), vehicle: acetone 88 % of control | dose: 800.0 mg/kg/injection, schedule: Q01DX001 (ip), vehicle: saline 87 % of control

CCOC(=O)C(=CNc1cccc(C)n1)C(=O)OCC
inactive: dose: 100.0 mg/kg/injection, schedule: Q01DX009 (ip), vehicle: saline with Tween-80 100 % of control | dose: 200.0 mg/kg/injection, schedule: Q01DX009 (ip), vehicle: saline with Tween-80 102 % of control | dose: 400.0 mg/kg/injection, schedule: Q01DX009 (ip), vehicle: saline with Tween-80 100 % of control

CCOC(=O)Nc1cc(Cl)ccc1OC
inactive: dose: 100.0 mg/kg/injection, schedule: Q01DX009 (ip), vehicle: Klucel (hydroxypropylcellulose) (HPC) 107 % of control | dose: 200.0 mg/kg/injection, schedule: Q01DX009 (ip), vehicle: Klucel (hydroxypropylcellulose) (HPC) 91 % of control | dose: 400.0 mg/kg/injection, schedule: Q01DX009 (ip), vehicle: Klucel (hydroxypropylcellulose) (HPC) 93 % of control

Cc1cc([N+](=O)[O-])cc(Cl)n1
inactive: [5] 97 % of control | [6] 102 % of control | dose: 400.0 mg/kg/injection, schedule: Q01DX001 (ip), vehicle: Klucel (hydroxypropylcellulose) (HPC) 100 % of control

CC(=O)OCC1OC(N2CCc3cc([N+](=O)[O-])ccc32)C(OC(C)=O)C(OC(C)=O)C1OC(C)=O (centres undefined)
inactive: dose: 50.0 mg/kg/injection, schedule: Q01DX001 (ip), vehicle: saline 97 % of control | [7] 96 % of control | [3] 96 % of control

CC(C)(C)C1=CC(=O)C=CC1=O
inactive: [8] 93 % of control | dose: 100.0 mg/kg/injection, schedule: Q01DX001 (ip), vehicle: water 100 % of control | [9] 97 % of control | dose: 200.0 mg/kg/injection, schedule: Q01DX001 (ip), vehicle: water 102 % of control

N#CCCc1ccnc2ccccc12
inactive: [10] 100 % of control | [11] 102 % of control | [12] 100 % of control

Nc1ccc(N=Nc2ccccc2)c2cccnc12 (tested in a mixture with another compound)
inactive: dose: 100.0 mg/kg/injection, schedule: Q04DX003 (sc), vehicle: olive oil, sesame oil, peanut oil 100 % of control | dose: 200.0 mg/kg/injection, schedule: Q04DX003 (sc), vehicle: olive oil, sesame oil, peanut oil 100 % of control | dose: 400.0 mg/kg/injection, schedule: Q04DX003 (sc), vehicle: olive oil, sesame oil, peanut oil 117 % of control

CCC(CC)NCC(C)OC(=O)c1ccc([N+](=O)[O-])cc1 (centres undefined)
inactive: dose: 75.0 mg/kg/injection, schedule: Q01DX001 (ip), vehicle: carboxymethylcellulose (CMC) 96 % of control | dose: 150.0 mg/kg/injection, schedule: Q01DX001 (ip), vehicle: carboxymethylcellulose (CMC) 105 % of control | dose: 300.0 mg/kg/injection, schedule: Q01DX001 (ip), vehicle: carboxymethylcellulose (CMC) 97 % of control

CS(=O)(=O)O/C=C1\C(=O)OC2CCCCC12 (centres undefined)
inactive: dose: 12.5 mg/kg/injection, schedule: Q01DX009 (ip), vehicle: water 111 % of control | dose: 25.0 mg/kg/injection, schedule: Q01DX009 (ip), vehicle: water 105 % of control | [8] 100 % of control | [9] 105 % of control | dose: 200.0 mg/kg/injection, schedule: Q01DX009 (ip), vehicle: water 106 % of control

CCc1nc(=S)c2ncn(CC)c2[nH]1
inactive: [13] 106 % of control | [14] 96 % of control | [15] 90 % of control

O=C(Nc1ccccc1C(F)(F)F)c1ccccc1Cl
inactive: [2] 98 % of control | [4] 93 % of control | dose: 400.0 mg/kg/injection, schedule: Q01DX009 (ip), vehicle: acetone 93 % of control

Cc1cc(C(=O)O)c(C(=O)O)c(=O)[nH]1
inactive: dose: 75.0 mg/kg/injection, schedule: Q01DX001 (ip), vehicle: other 111 % of control | dose: 150.0 mg/kg/injection, schedule: Q01DX001 (ip), vehicle: other 104 % of control | dose: 300.0 mg/kg/injection, schedule: Q01DX001 (ip), vehicle: other 102 % of control

O=C(NCCCCC(Cl)C(=O)O)c1ccccc1 (centres undefined)
inactive: [13] 100 % of control | [14] 100 % of control | [15] 100 % of control

Nc1ncnc2c1ncn2C1OC(COC(=O)C2C3CC4CC(C3)CC2C4)C(O)C1O (centres undefined)
inactive: [7] 104 % of control

CCCCCCCCCCCCCCC[N+](C)(C)C
inactive: dose: 12.5 mg/kg/injection, schedule: Q01DX009 (ip), vehicle: saline 102 % of control | [1] 93 % of control

O/N=c1/cc(-c2cccs2)ss1
inactive: [16] 86 % of control | [17] 86 % of control | [10] 87 % of control | [18] 98 % of control | [11] 95 % of control | [12] 95 % of control

CC(=O)Oc1ccc(OC(C)=O)c2c1C(=O)C=CC2=O
inactive: dose: 0.78 mg/kg/injection, schedule: Q04DX002 (ip), vehicle: alcohol 110 % of control | dose: 1.56 mg/kg/injection, schedule: Q04DX002 (ip), vehicle: alcohol 100 % of control | dose: 3.12 mg/kg/injection, schedule: Q04DX002 (ip), vehicle: alcohol 106 % of control | dose: 6.25 mg/kg/injection, schedule: Q04DX002 (ip), vehicle: alcohol 93 % of control | [7] 107 % of control

CN(C)CCC(c1ccccc1)(c1ccccc1)c1ccccc1
inactive: dose: 50.0 mg/kg/injection, schedule: Q01DX001 (ip), vehicle: carboxymethylcellulose (CMC) 92 % of control | dose: 100.0 mg/kg/injection, schedule: Q01DX001 (ip), vehicle: carboxymethylcellulose (CMC) 92 % of control | dose: 200.0 mg/kg/injection, schedule: Q01DX001 (ip), vehicle: carboxymethylcellulose (CMC) 94 % of control

C#CCC(B1OCCO1)B1OCCO1
inactive: dose: 50.0 mg/kg/injection, schedule: Q01DX001 (ip), vehicle: Klucel (hydroxypropylcellulose) (HPC) 97 % of control | [5] 90 % of control | [6] 100 % of control

Nc1ccc(NC(=O)Nc2ccccc2)cc1
inactive: dose: 100.0 mg/kg/injection, schedule: Q04DX002 (ip), vehicle: Klucel (hydroxypropylcellulose) (HPC) 101 % of control | dose: 200.0 mg/kg/injection, schedule: Q04DX002 (ip), vehicle: Klucel (hydroxypropylcellulose) (HPC) 90 % of control | dose: 400.0 mg/kg/injection, schedule: Q04DX002 (ip), vehicle: Klucel (hydroxypropylcellulose) (HPC) 101 % of control

IC#Cc1ccccc1
inactive: dose: 100.0 mg/kg/injection, schedule: Q01DX001 (ip), vehicle: saline with Tween-80 112 % of control | dose: 200.0 mg/kg/injection, schedule: Q01DX001 (ip), vehicle: saline with Tween-80 105 % of control | dose: 400.0 mg/kg/injection, schedule: Q01DX001 (ip), vehicle: saline with Tween-80 105 % of control

CN(C)C(=S)Oc1ccc(OC(=S)N(C)C)cc1
inactive: [13] 100 % of control | [14] 95 % of control | [15] 100 % of control

Cc1ccc(C(C)C)c(OCC2=NCCN2C)c1
inactive: [16] 100 % of control | [17] 98 % of control | [18] 115 % of control
